Patent US8778643B2, “Methods for increasing lipid levels and producing triacylglycerols in algae” (priority 2012, dated 2014)
“And” between values parts separate entries of the source, which are not always exact repeats. Equal entries are not always repeated. “Also recorded” adds a separate entry of the source. Where two headings read alike, the source gives them in different places.

Key:
[1] = tested on: microalgae; assay: Microplate assay (growth, Nile Red lipids), algae strain not stated
[2] = tested on: Nannochloropsis oculata; settings: for increase in lipid levels (Nile Red): lower concentrations, >0.040 nM
Description: (§1) Stock cultures were aerated by stirring with bubbling air (homemade manifold with Petco air pump, 2-4% CO2) or by orbital shaking (Thermo Scientific MAXQ 2000) at a constant speed of 150 rpm at 22±3° C. with a 16:8 hour light/dark cycle. Stocks were kept at stationary phase for use. Algae were prepared as dictated by culture center.
(§2) Compounds were selected based on reported biological activity in non-microalgae organisms. To ensure that compounds retained their quality, they were stored under advised conditions after purchasing from the manufacturer. Solutions of all assay compounds were prepared as 10 mM stock solutions by dissolving in DMSO in 2-dram amber vials and then stored in darkness −20° C. 96-well PCR plates were used to create a stock plate layout that was then transferred to the algae microplates. A plate map was used to distribute each compound to a well based on molecule name, collection number, and CAS number. For 20 μM and 200 nM assay plates, 10 mM compound stock in DMSO was diluted into plate maps of 5 mM and 50 μM assay stocks, respectively.
(§3) All materials for assay experiments were autoclaved before each use to maintain axenic algae cultures. Algae species were checked for homogeneity using a TS-100 light microscope (Nikon, Japan). […] Diluted stock solutions were made immediately prior to use for consistency and optimal plate growth. Cell density was measured on a Thermo Scientific Genesys 10S Vis Spectrophotometer (ThermoFisher, San Jose), using a 1 mL cuvette at 680 nm.
(§4) Plates were originally run in triplicate, before replicates were increased to quadruplicate, along with a separate control plate to compare growth. Due to extensive evaporation in exterior wells over time, our unique algae plate layout was designed to use the 60 interior wells out of 96 wells for the experiment. The 36 outer wells were filled with Millipore water and media to prevent evaporation and edge effects in the inner algae wells, as well as serve as blanks. The 60 wells with algae contained a total volume of 251 μL (100 μL of media+DMSO compound stock +150 μL dilute algae stock). For 20 μM and 200 nM assay plates, 10 mM compound stock in DMSO is diluted into plate maps of 5 mM and 50 μM assay stocks, respectively. […] Plates were parafilmed during growth to limit the amount of evaporation that can occur. Plates were numbered, and numerically ordered to ensure they got the same shaker space.
(§5) The shakers are kept at a constant shaking of 150 rpm. Ambient temperature is 22±3° C.

[3] = tested on: Nannochloris sp.; assay: Microplate assay: growth (absorbance 680 nm) and intracellular lipids (Nile Red fluorescence); format: cell-based
Description: as §1, §2, §3, §4, §5

[4] = tested on: Nannochloropsis oculata; assay: Lipid composition of batch culture extracts (fatty acid saturation / PUFA by 1H NMR, MALDI-TOF, GC/MS); format: cell-based; settings: for SFAs (% of total lipids) / n3 PUFAs (% of UFAs) / All other PUFAs and MUFAs (% of UFAs) / UFAs (% of total lipids): 1H NMR; for SFAs (% of total lipids): Normal 24; for n3 PUFAs (% of UFAs): Normal 37; for All other PUFAs and MUFAs (% of UFAs): Normal 63; for UFAs (% of total lipids): Normal 76; for SFAs (%) / MUFAs (%) / n3 PUFAs (%) / PUFAs (%): N. oculata, n=1; for SFAs (%): Normal 0 ± 1; for MUFAs (%): Normal 4 ± 7; for n3 PUFAs (%): Normal 28 ± 4; for PUFAs (%): Normal 96 ± 7
Description: The nonpolar algal extracts were harvested from 500 mL cultures when indicated on growth curves, a minimum of 3 days into stationary phase. […] Cells were crushed and nonpolar lipids were extracted by sonication (Fisher Scientific Model 120 Sonic Dismembrator, ThermoFisher, San Jose) for 1 minute in chloroform, followed by chloroform-methanol extractions, washed with PBS butter, and dried under vacuum.^55-60 The crude non-polar algae extracts were then analyzed by ^1H Nuclear Magnetic Resonance (^1H NMR) for verification of TAG presence and examination of the purity of the extract (determination of level of chlorophyll). The extracts were then divided for analysis; one part for transesterification, one part to save as crude extract, and one part for SPE separation and MALDI-TOF analysis of TAGs.
Triacylglycerols can be isolated by solid-phase extraction (SPE) with 500 mg silica SPE cartridges (Silicycle, Quebec). The nonpolar extract is dissolved in 300 μL hexanes, and loaded on the SPE cartridge primed with hexanes. A mixture of 80:20:1 hexanes/diethyl ether/acetic acid was used as mobile phase to elute the TAGs.^61 SPE removes any chlorophyll in this process. Residual polar fraction containing polar lipids and chlorophyll was obtained by elution with acetone. All extracts and TAG fractions were dried under vacuum and stored under argon in amber vials at −20° C. before spectroscopic analysis. After SPE, the purified TAG fraction was reanalyzed with ^1H NMR spectroscopy for TAG characterization.
The TOF was in Reflectron mode with laser intensity from 5500-6500 Volts. Each acquisition consisted of 2500 shots with a focus mass of 900 Da, and a scan range of m/z 400-1100. Multiple acquisition scans were performed at different laser intensities to determine optimal conditions. Samples for the MALDI-TOF were diluted to 5 mg/mL in hexane, and spotted in the fast-evaporation method in a 1:2 ratio with DHB (2,5-dihydroxybenzoic acid) as the matrix. Re-spotting with methanol allowed for the matrix and sample to mix without hexane interactions, and allowed for better crystal formation. All samples on MALDI plate were allowed to dry before MS analysis. Data was normalized to base peak in all cases.
After the initial weight was recorded, the nonpolar extract set aside for transesterification was dissolved in 3.0 mL of 0.6 M sulfuric acid in methanol and stirred vigorously at 60° C. for 45 minutes.
Initial GC/MS temperature was 50° C. and end was 200° C. over at a one hour period for optimal FAME peak separation.
Peak assignment of fatty acids and their derivatives are based on NMR spectroscopic studies of previously reported algal lipid extracts^9 and comparison to standards such as olive oil (ACROS) and fatty acid mixtures.
We developed a quick and robust method to screen if the screened compound effect fatty acid saturation levels using ^1H NMR spectroscopy. The amount of saturated fatty acids (SFA), monounsaturated fatty acids (MUFAs), and polyunsaturated fatty acids (PUFAs) was determined using peak area ratios.
Calculated based on ^1H NMR integral ratios for the proton signals for the methyl group of PUFA components vs. the methyl groups of monounsaturated and saturated components.

[5] = tested on: Phaeodactylum tricornutum; assay: Microplate assay: growth (absorbance 680 nm) and intracellular lipids (Nile Red fluorescence); format: cell-based; settings: for increase in lipid levels: higher concentrations
[6] = tested on: Nannochloris sp.; assay: 500 mL batch culture: growth, dry weight and lipid extract (gravimetric); format: cell-based; settings: for Lipid productivity / Change in Lipids / Specific Growth Rate: Nannochloris sp., 500 mL culture; for Change in Lipids: gravimetric, relative to averaged control without DMSO; for Specific Growth Rate: mid-exponential growth phase
Description: (§6) Batch cultures were grown in 500 mL Pyrex media bottles with stirring and air bubbling (homemade manifold with Petco air pump, 2-4% CO2). Incoming air was sterile filtered by Polyvent 4 disposable filters (Whatman, Kent, UK). […] To minimize bacterial contamination, all equipment and materials were autoclaved and media was added to flask in a Purifier Vertical Clean bench (Labconco, Kansas City, Mo.). […] The amount of DMSO is standardized for all experiments to 0.4%.
(§7) For all compound cultures, the 2 mL DMSO stock solution was added to media (without algae) first and mixed well. Control cultures were grown without DMSO. DMSO controls consisted of 0.04-1.0% DMSO. After the addition of algae and media, the container was plugged with a bug stopper vented closure cap and mixed thoroughly. Absorbance is measured immediately for Day 0 analysis. Afterward, absorbance was measured every 1-2 days with a cuvette (1 mL volume) on the Thermo Scientific Genesys 10S V is Spectrophotometer (ThermoFisher, San Jose) at 680 nm.
(§8) Batch cultures were also repeated in triplicate and compared to a control culture grown at the same time. Algae were harvested and lipids were extracted for gravimetric analysis.
(§9) The nonpolar algal extracts were harvested from 500 mL cultures when indicated on growth curves, a minimum of 3 days into stationary phase.
(§10) Cell density was monitored by measuring absorbance at 680 nm every 1-2 days.
(§11) 500-mL cultures were harvested 6 days into stationary phase based on absorbance values. Cells were concentrated by centrifugation and lyophilization to remove water. Nonpolar lipids were extracted by sonication and solvent (chloroform-methanol and PBS buffer). […] Changes in lipid levels for batch cultures were determined by crude lipid extract mass.

[7] = tested on: Nannochloropsis salina
[8] = tested on: Nannochloropsis oculata; assay: 500 mL batch culture: growth, dry weight and lipid extract (gravimetric); format: cell-based
Description: as §6, §7, §8, §9, §10, §11

[9] = tested on: Nannochloropsis salina; assay: as above; format: cell-based
Description: as §6, §7, §8
Cultures were harvested at day 6 in stationary phase. Cultures were pelleted, lyophilized, and extracted side-by-side. The experiment was performed in triplicate.
The nonpolar algal extracts were harvested from 500 mL cultures when indicated on growth curves, a minimum of 3 days into stationary phase. […] Cells were crushed and nonpolar lipids were extracted by sonication (Fisher Scientific Model 120 Sonic Dismembrator, ThermoFisher, San Jose) for 1 minute in chloroform, followed by chloroform-methanol extractions, washed with PBS butter, and dried under vacuum.^55-60 The crude non-polar algae extracts were then analyzed by ^1H Nuclear Magnetic Resonance (^1H NMR) for verification of TAG presence and examination of the purity of the extract (determination of level of chlorophyll).
as §10, §11

[10] = tested on: Phaeodactylum tricornutum; assay: as above; format: cell-based
Description: as §6, §7, §8, §9, §10, §11

[11] = tested on: microalgae; assay: 500 mL batch culture (growth, gravimetric lipids), algae strain not stated; format: cell-based; settings: 500 mL batch cultures (Table 30)
[12] = 200 nM, initial microplate screen, relative to control
[13] = DMSO at 0.4% v/v, batch culture
[14] = N. oculata, DMSO average, harvested day 6 of stationary phase, n=3
[15] = 0.4% by volume, 500 mL culture, day 6 in stationary phase
[16] = 500 mL batch cultures, gravimetric (Table 30)
[17] = 40 μM, initial microplate screen, relative to control

## CC1CC(C)C(=O)C(C(O)CC2CC(=O)NC(=O)C2)C1 (centres unmarked) [Cycloheximide, 3-[2-(3,5-Dimethyl-2-oxocyclohexyl)-2-hydroxyethyl]glutarimide]
[1]; added in the initial phase, <1 μM, greater than 1 μM
  effect on lipid levels: minimal increase in lipid levels
[1]; added in the initial phase, <1 μM, greater than 1 μM, all four species
  effect on cell growth: inhibitory effect on cell growth
[2]; 4.6-41.2 nM, dose-response microplate screen
  Nile Red percent increase: 87-96%
[2]; N. oculata, compounds tested at 200 nM, initial screening, p<0.05
  Nile Red Fluorescence % Increase: 137.9%
[3]; [12]
  Absorbance (percent increase): −12.4%
  Nile Red percent increase: 178.1%
[4]; 40 nM (exponential)
  SFAs (% of total lipids): 39 % of total lipids
  n3 PUFAs (% of UFAs): 33 % of UFAs
  All other PUFAs and MUFAs (% of UFAs): 67 % of UFAs
  UFAs (% of total lipids): 61 % of total lipids
[5]; P. tricornutum, 400 nM, added at exponential phase, t=day 7
  % Lipid increase based on Nile red fluorescence intensity: 408%
[5]; P. tricornutum, 400 nM, added during exponential phase
  % Increase based on Nile Red Fluorescence Intensity: 408%

## C[S+](C)[O-] [DMSO, dimethylsulfoxide]
[6]; 500 mL batch culture
  effect on growth and lipid levels: No significant changes; also recorded: no effect, or a small decrease in growth and lipid production
[1]; 0.4% v/v DMSO
  effect on growth (deviation from control growth): ≤ 10%
[1]; less than 0.4% v/v DMSO, microplates, any of the four microalgae strains
  effect on growth: did not show a toxic or detrimental effect on the growth
[1]; ≧1% v/v DMSO
  effect on growth: detrimental growth effects
[2]; 0.4% DMSO, microplate screen
  increase in cell density: 57%
  increase in lipid levels: 75%
[2]; >0.8% v/v DMSO, microplates
  effect on growth and cell density: detrimental effect on growth and cell density
[7]; >0.8% v/v DMSO, microplates
  effect on growth and cell density: detrimental effect on growth and cell density
[8]; 1.0% DMSO, batch cultures
  increase in lipid levels relative to control without DMSO: 78%
[8]; 500 mL batch culture
  effect on growth and lipid levels: increased growth and lipid levels
[8]; [13]
  increase in lipid levels: 39%
[8]; N. oculata, DMSO (0.4%), n=3
  Absorbance at harvest: 1.776 ± 0.060
  Dry weight: 409.2 ± 105.6
  Extract Weight: 67.2 ± 7.8
[8]; N. oculata, DMSO (1%), n=2
  Absorbance at harvest: 1.827 ± 0.288
  Dry weight: 280.4 ± 88.0
  Extract Weight: 47.2 ± 11.0
[8]; [14]
  Absorbance at harvest: 1.83
  Dry weight: 283.27 mg
  Extract Weight: 56.83 mg
  Number of Cells: 2.32E+09
  Recovered Weight: 267.27 mg
[9]; [15]
  Absorbance at harvest: 1.50 ± 0.13
  Dry weight: 429.90 ± 109.74 mg
  Extract Weight: 92.83 ± 6.37 mg
  Number of Cells: 1.44E+09
  Recovered Weight: 393.17 ± 112.84 mg
[9]; 500 mL batch culture
  effect on growth and lipid levels: increased growth and lipid levels
[9]; [13]
  increase in lipid levels: 25%
[9]; DMSO, batch culture (Table 18)
  increase in lipid levels: up to 50%
[10]; 500 mL batch culture
  effect on growth and lipid levels: No significant changes; also recorded: decrease in growth and lipid production; also recorded: no effect, or a small decrease in growth and lipid production
[4]; 1%
  SFAs (%): 7%
  MUFAs (%): 32%
  n3 PUFAs (%): 17%
  PUFAs (%): 61%

## Cc1cc2c(C(C)C)c(O)c(O)c(C=O)c2c(O)c1-c1c(C)cc2c(C(C)C)c(O)c(O)c(C=O)c2c1O [Gossypol, 2,2′-bis-(Formyl-1,6,7-trihydroxy-5-isopropyl-3-methylnaphthalene)]
[7]; 0.0757-6.13 nM (H2O)
  % increase (lipid production): 1-27(H2O) %
[7]; 0.0757-55.2 nM, DMSO delivery
  % increase (lipid production): 8-81%
[7]; N. salina, 6.13 nM, DMSO, t=day 0
  % Lipid increase based on Nile red fluorescence intensity: 103%
[7]; N. salina, 6.13 nM, DMSO delivery, added t=day 0
  % Increase based on Nile Red Fluorescence Intensity: 103%
[7]; lipoxygenase inhibitor microplate screen
  optimal effective concentration (lipid production): 6 nM
[10]; P. tricornutum, 500 mL culture, 76 pM
  Lipid productivity: 5.6 ± 1.9 mgL^−1day^−1
[10]; P. tricornutum, 500 mL culture, 76 pM, dried lipid extract per dry biomass
  Lipid content: 24.4 ± 2.7 % w/w
[10]; P. tricornutum, 500 mL culture, 76 pM, gravimetric, relative to averaged control without DMSO
  Change in Lipids: 27%
[10]; P. tricornutum, 500 mL culture, 76 pM, mid-exponential growth phase
  Specific Growth Rate: 0.21 ± 0.05 day⁻¹
[5]; 0.0757 nM, DMSO delivery
  increase in lipid production: > 250%
[5]; 0.0757 nM, dose-response microplate screen
  Nile Red percent increase: 111%
[5]; 0.0252-165.6 nM
  % increase (lipid production): 5-283%
[5]; DMSO delivery
  optimal effective concentration (lipid production): 0.0757 nM

## CCN(CC)CCCC(C)Nc1c2ccc(Cl)cc2nc2ccc(OC)cc12.Cl.Cl (centres unmarked) [Quinacrine, 6-Chloro-9-(4-diethylamino-1-methylbutyl-amino)-2-methoxyacridine dihydrochloride]
[6]; [16]
  increase in lipid levels: 31%
[6]; 40 nM
  Lipid productivity: 4.2 ± 1.1 mgL^−1day^−1
  Change in Lipids: 31%
  Specific Growth Rate: 0.18 ± 0.01 day⁻¹
[2]; N. oculata, 244 nM, DMSO, t=day 0
  % Lipid increase based on Nile red fluorescence intensity: 106%
[2]; N. oculata, 61 pM, DMSO delivery, added t=day 0
  % Increase based on Nile Red Fluorescence Intensity: 100%
[2]; N. oculata, 244 pM, DMSO delivery, added t=day 0
  % Increase based on Nile Red Fluorescence Intensity: 106%
[2]; N. oculata, 976 pM, DMSO delivery, added t=day 0
  % Increase based on Nile Red Fluorescence Intensity: 93%
[2]; N. oculata, 4 nM, DMSO delivery, added t=day 0
  % Increase based on Nile Red Fluorescence Intensity: 75%
[2]; N. oculata, 15.6 nM, DMSO delivery, added t=day 0
  % Increase based on Nile Red Fluorescence Intensity: 66%
[7]; 55 nM, dose-response microplate screen
  Nile Red percent increase: 103%
[11]
  effect on growth and lipid levels: positive increases in growth and lipid levels
[8]; [16]
  increase in lipid levels: 51%
[8]; N. oculata, 500 mL culture, 400 nM
  Lipid productivity: 5.2 ± 0.6 mgL^−1day^−1
[8]; N. oculata, 500 mL culture, 400 nM, gravimetric, relative to averaged control without DMSO
  Change in Lipids: 51%
[8]; N. oculata, 500 mL culture, 400 nM, mid-exponential growth phase
  Specific Growth Rate: 0.18 ± 0.04 day⁻¹
[9]; N. salina, 500 mL culture, 40 nM
  Lipid productivity: 4.5 ± 1.0 mgL^−1day^−1
[9]; N. salina, 500 mL culture, 40 nM, dried lipid extract per dry biomass
  Lipid content: 26.5 ± 3.9 % w/w
[9]; N. salina, 500 mL culture, 40 nM, gravimetric, relative to averaged control without DMSO
  Change in Lipids: 6%
[9]; N. salina, 500 mL culture, 40 nM, mid-exponential growth phase
  Specific Growth Rate: 0.25 ± 0.02 day⁻¹
[3]
  % Increase based on Nile Red Fluorescence Intensity: 135%
[3]; Nannochloris sp., 49 nM, (water), t=day 0
  % Lipid increase based on Nile red fluorescence intensity: 136%
[3]; Nannochloris sp., 49 nM, dissolved in water, added t=day 0
  % Increase based on Nile Red Fluorescence Intensity: 136%
[3]; in water, dose-response microplate screening
  increase in intracellular lipids compared to the control (Nile red): more than 100%
[4]; 4 nM
  SFAs (% of total lipids): 53 % of total lipids
  n3 PUFAs (% of UFAs): 45 % of UFAs
  All other PUFAs and MUFAs (% of UFAs): 55 % of UFAs
  UFAs (% of total lipids): 47 % of total lipids
[4]; 400 nM
  SFAs (%): 3%
  MUFAs (%): 12%
  n3 PUFAs (%): 17%
  PUFAs (%): 76%

## Oc1ccc(-c2nc(-c3ccncc3)c(-c3ccc(F)cc3)[nH]2)cc1 [SB202190, 4-(4-Flurophenyl)-2-(4-hydroxyphenyl)-5-(4-pyridyl)-1H-imidazole]
[6]; 4 nM
  Lipid productivity: 3.0 ± 1.7 mgL^−1day^−1
  Change in Lipids: 3%
  Specific Growth Rate: 0.17 ± 0.02 day⁻¹
[6]; 4 nM, exponential addition
  Lipid productivity: 4.0 ± 1.6 mgL^−1day^−1
  Change in Lipids: 38%
  Specific Growth Rate: 0.15 ± 0.08 day⁻¹
[6]; batch culture, added during the exponential growth phase
  increase in lipid levels: 38%
[2]; N. oculata, 400 fM, added at exponential phase, t=day 7
  % Lipid increase based on Nile red fluorescence intensity: 95%
[2]; N. oculata, 400 fM, added during exponential phase
  % Increase based on Nile Red Fluorescence Intensity: 95%
[2]; compound added at t=day 0
  increase in lipid levels (Nile Red): 45%
[2]; compound added in exponential growth phase (Day 7)
  increase in lipid levels (Nile Red): 95%
[3]; 123-457 pM, dose-response microplate screen
  Nile Red percent increase: 103-175%
[3]; Nannochloris sp., compounds tested at 20 μM, initial screening, p<0.05
  Nile Red Fluorescence % Increase: 54.6% and 28.8%
[5]; [17]
  Absorbance (percent increase): +4.26%
  Nile Red percent increase: 112.4%
[5]; DMSO as delivery agent
  increase in lipid levels: 26%
[5]; P. tricornutum, compounds tested at 40 μM, initial screening, p<0.05
  Nile Red Fluorescence % Increase: 115.0%
[5]; water as delivery agent
  increase in lipid levels: 99%
